Assay results from patent US20240376143A1, “SELECTION INHIBITION OF DNA POLYMERASE BETA BY A COVALENT INHIBITOR” (The Johns Hopkins University, priority 2021, published 2024).

Key:
[1] = system: MDA-MB-436; assay: clonogenic assay, BRCA1 deficient breast cancer cells; format: cell-based; conditions: 1 h
Experimental: (§1) The medium was removed, and the cells were resuspended in fresh media (10 mL). […] The excess dye was removed by washing with water twice.

[2] = system: UWB1.289 (BRCA1−/−); assay: clonogenic assay, BRCA1 deficient ovarian cancer cells; format: cell-based; conditions: 1 μM
Experimental: as §1
UWB1.289 cells (6×106) were seeded with RPMI 1640/MEGM medium (10 mL) into a 100 mm plate prior to transfection so cells would be adherent and ˜80% confluent on the first day of transfection, which was determined by manual inspection. Transfection was completed as follows: • 1. Lipofectamine RNAiMAX (60 μL) was diluted in Opti-MEM reduced serum medium to 1 mL. • 2. In a separate tube, siRNA (either siNT or siPol β, 10 μM, 60 μL, […]) was diluted in Opti-MEM (500 μL). • 3. The Lipofectamine solution was split (2×500 μL aliquots) and mixed with either siNT or siPol β solution to form the lipid-RNA complex at 25° C. for 5 min. • 4. The RPMI 1640/MEGM medium was removed and replaced with Opti-MEM medium (9 mL). After 5 min incubation, the lipid-RNA solution (1 mL) was added to the cells. Cells were incubated at 37° C. in a 5% CO2 humidified incubator. The following day, steps 1-3 were repeated. and the resulting 2×500 μL solutions were added to the existing cells that had been incubating at 37° C., 5% CO2 for 24 h. Transfected cells were allowed to incubate for an additional 48 h at 37° C., 5% CO2 after the second addition of siRNA. […]

[3] = system: MCF-7; assay: clonogenic assay, BRCA1 proficient breast cancer cells; format: cell-based; conditions: 1 h
Experimental: as §1

[4] = system: UWB1.289+BRCA1; assay: clonogenic assay, BRCA1 complemented ovarian cancer cells; format: cell-based
[5] = biological target: T1, Pol λ (Homo sapiens, UniProt Q9UGP5); assay: primer extension assay (Pol λ); format: biochemical; conditions: 10 μM
T1 sequence (Q9UGP5 1-575): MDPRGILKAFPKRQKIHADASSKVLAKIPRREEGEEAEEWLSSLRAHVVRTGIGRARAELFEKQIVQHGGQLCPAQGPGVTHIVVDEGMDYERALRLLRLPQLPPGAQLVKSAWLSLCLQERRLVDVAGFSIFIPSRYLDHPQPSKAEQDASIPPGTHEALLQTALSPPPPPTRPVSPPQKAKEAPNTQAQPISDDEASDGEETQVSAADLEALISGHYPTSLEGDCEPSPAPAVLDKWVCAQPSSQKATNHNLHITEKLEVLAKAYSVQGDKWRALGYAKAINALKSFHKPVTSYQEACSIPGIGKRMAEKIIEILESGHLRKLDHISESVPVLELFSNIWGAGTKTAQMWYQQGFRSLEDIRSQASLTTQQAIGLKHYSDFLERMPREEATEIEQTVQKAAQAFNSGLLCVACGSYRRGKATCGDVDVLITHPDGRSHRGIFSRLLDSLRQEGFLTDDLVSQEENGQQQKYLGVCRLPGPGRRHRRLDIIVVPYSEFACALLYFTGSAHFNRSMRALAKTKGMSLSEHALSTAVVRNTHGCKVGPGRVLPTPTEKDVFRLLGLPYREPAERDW
Experimental: (§2) A 10× working solution of 14 (5 or 100 μM) was prepared in 1:1 MeCN/H2O. A 10× preincubation mixture was prepared by mixing a 50× working solution of polymerase (250 nM) with an aliquot of the inhibitor (5 or 100 μM, 10×) in 1× reaction buffer (50 mM Tris·HCl, 50 mM NaCl, 5 mM MgCl2, 5 mM DTT, 0.1 mg/mL BSA, 10% glycerol, pH 7.5) (see Table 19 for volumes). The concentration of the preincubation mixture was 50 nM polymerase (10×) and 0, 0.5 or 10 μM 14 (1×).
(§3) The samples containing 50 nM polymerase and 14 (0, 0.5, or 10 μM) were preincubated at 25° C. for 20 min. After preincubation, an aliquot (2 μL, pol η or 3 μL, pol λ) was diluted with 10× ternary complex (pol η: 2 μL, 500 nM D4 or pol λ: 3 μL, 100 nM TC5), 10× dNTPs (5 mM; 2 μL, pol η or 3 μL, pol λ), and 1× reaction buffer (14 μL., pol η or 21 μL, pol λ) (see Table 20 for volumes). While the samples were incubated at 37° C., aliquots (pol η: 0, 2, 5, 10, 15, 20 min, 3 μL or pol λ: 0, 5, 15, 20, 30 min, 5 μL) were removed and quenched by the addition of 95% formamide, 20 mM EDTA loading buffer (10 μL). Aliquots were heated at 95° C. for 5 min, spun down, and loaded onto a 20% denaturing PAGE and run for 4 h at 55 watts. The gel was exposed in a radiography cassette, which was scanned using a Phosphorimager.

[6] = biological target: T2, Pol η (Homo sapiens, UniProt Q9Y253); assay: primer extension assay (Pol η); format: biochemical; conditions: 10 μM
T2 construct: purchased EnzyMax
T2 sequence (Q9Y253 1-713): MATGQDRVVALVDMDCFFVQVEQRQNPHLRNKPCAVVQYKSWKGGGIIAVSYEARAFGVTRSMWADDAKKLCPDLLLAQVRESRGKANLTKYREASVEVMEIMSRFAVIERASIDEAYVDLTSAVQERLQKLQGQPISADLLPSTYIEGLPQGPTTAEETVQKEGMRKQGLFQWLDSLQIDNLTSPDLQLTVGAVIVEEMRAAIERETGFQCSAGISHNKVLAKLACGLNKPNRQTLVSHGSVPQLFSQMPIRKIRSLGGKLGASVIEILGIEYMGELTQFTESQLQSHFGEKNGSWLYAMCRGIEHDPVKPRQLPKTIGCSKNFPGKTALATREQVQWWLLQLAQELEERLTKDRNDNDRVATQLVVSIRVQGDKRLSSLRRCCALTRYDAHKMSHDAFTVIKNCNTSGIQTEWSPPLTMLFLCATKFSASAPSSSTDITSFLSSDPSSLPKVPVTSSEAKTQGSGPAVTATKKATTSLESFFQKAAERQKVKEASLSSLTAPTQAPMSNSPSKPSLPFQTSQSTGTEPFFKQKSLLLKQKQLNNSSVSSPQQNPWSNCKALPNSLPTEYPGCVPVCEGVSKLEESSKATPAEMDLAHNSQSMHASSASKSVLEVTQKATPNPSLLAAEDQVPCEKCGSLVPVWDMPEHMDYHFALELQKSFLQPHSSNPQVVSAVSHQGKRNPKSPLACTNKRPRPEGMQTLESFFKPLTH
Experimental: as §2, §3

[7] = system: MEFs lacking Pol β (Pol β−/−); assay: cell viability assay for MEFs lacking Pol β; format: cell-based, mouse; conditions: MMS alone
Experimental: Mouse embryonic fibroblasts (Pol β1 WT, Pol β−/−, Pol λ WT, Pol λ−/−, Pol β−/λ−) were seeded at a density of ˜0.3×10^6 cells/well in 6-well dishes. […] Control wells were treated with an equal volume of vector (50% MeCN in H2O). Cells were washed with 1×PBS and fresh medium was added. Dishes were incubated for 5 days at 34° C. in a 10% CO2 incubator until untreated control cells were approximately 80% confluent. Cells (triplicate wells for each treatment concentration were counted by a cell lysis procedure (described previously), and the results were expressed as the surviving fraction of cells in drug-treated wells relative to control wells.

[8] = biological target: DNA polymerase β (Pol β) (Homo sapiens, UniProt P06746); conditions: 30 min preincubation; Paul et al.; cited from earlier work

## O=C(c1cc(Cc2n[nH]c(=O)c3ccccc23)ccc1F)N1CCN(C(=O)C2CC2)CC1 [Olaparib]
[1]
  cell killing compared with pro-1: more effective at killing BRCA1−/− cells at a lower concentration
[2]
  cytotoxicity as a function of treatment time: proportional to incubation time
[3]
  toxicity compared with pro-1: more toxic
[4]; 1 h treatment
  toxicity: modestly toxic
[4]; time course
  cytotoxicity upon prolonged treatment, compared with pro-1: more cytotoxic

## O=C(NC1CC(n2cc(CNC(=O)c3cc4cc(Br)ccc4c(Br)c3O)c(=O)[nH]c2=O)OC1COP(=O)(O)OCC1CC(O)OC1O)c1cc(-c2ccc(Cl)cc2)oc1C(F)(F)F (stereo not drawn) [Compound 14]
[5]
  Pol λ activity relative to untreated enzyme: more than 25%
[6]
  Pol η activity retained: approximately 50%

## COS(C)(=O)=O [MMS, methyl methanesulfonate]
[7]
  toxicity compared with WT MEFs: considerably more toxic

## COc1cc(Cl)c(C=NOC2CC(n3cc(CNC(=O)c4cc5cccc(O)c5cc4O)c(=O)[nH]c3=O)OC2COP(=O)(O)OCC2CC(O)OC2O)c(Cl)c1O (stereo not drawn) [Compound 2]
[8]
  IC50: 0.4 µM
